In PubChem BioAssay (NCI) one finds GI50 and TGI data, which are given here for nine molecules.

Assay in all cases: DTP human tumour cell line panel, 48 h
Experiment [1] relates to UACC-257 melanoma.
The test system of experiment [2] is IGROV1 ovarian.
Experiment [3] relates to HOP-62 NSCLC.
The subject of experiment [4] is MALME-3M melanoma.
Experiment [5] relates to OVCAR-5 ovarian.
Experiment [6] concerns U251 CNS.
The test system of experiment [7] is UACC-62 melanoma.
Experiment [8] has as its system DU-145 prostate.
Experiment [9] concerns HT29 colon.
In experiment [10] the test system is CCRF-CEM leukemia.

“And” between values parts separate entries of the source, which are not always exact repeats. Identical values can stand only once.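 Five concentrations, 48 hours, 96-well plates. At the GI50, growth is halved. The concentration for full growth arrest is given as TGI.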

In the case of `Cc1c(Cl)cccc1NC(=O)c1sc2nc3c(cc2c1N)CCCC3`, the GI50 (as a rule, the concentration at which growth is held to half of that of the control) in [1] was 0.688 µM; in [2], 0.82 µM; in [3], 0.451 µM; in experiment [4] it was 0.571 µM; in experiment [5], over 100 µM; in experiment [6], 0.504 µM. In addition, the GI50 in experiment [7] is 0.6 µM; in [8], 1.38 µM; in experiment [9], 0.369 µM; in [10] it was 0.447 µM. Moreover, the TGI in experiment [1], in experiment [2], in experiment [3], in [4], in experiment [5] and in experiment [6] was over 100 µM in each case. The total growth inhibition concentration (TGI) in experiment [7], in experiment [8], in experiment [9] and in experiment [10] was over 100 µM each time.

Turning to `Oc1ccc(Cl)cc1/C=N\NC(=S)N/N=C/c1cc(Cl)ccc1O`, the GI50 in experiment [1] is 2.13 µM; in experiment [2], 2.52 µM; in experiment [3] it was 2.47 µM; in experiment [4], 2.14 µM; in [5], 5.04 µM; in [6], 1.08 µM. The GI50 in experiment [7] is 1.74 µM; in experiment [8], 3.67 µM; in [9], 5.13 µM; in experiment [10], 0.468 µM. Moreover, the concentration for total growth inhibition (TGI) (as a rule, the concentration at which net growth stops) is 7.49 µM in experiment [1]; over 100 µM in experiment [2]; over 100 µM in experiment [3]; 52.7 µM in [4]; over 100 µM in [5]; over 100 µM in experiment [6]. Besides, the total growth inhibition concentration (TGI) in experiment [7] was determined as 7.57 µM; in [8] it was 70 µM; in experiment [9], 54.4 µM; in [10], 12.1 µM.

Regarding `CNC(c1ccncc1)C(NC)c1ccncc1` (centres undefined), the TGI in experiment [1], in experiment [2], in experiment [3], in experiment [4], in [5] and in experiment [6] was over 100 µM each time. Also, the TGI in [7], in experiment [8], in [9] and in experiment [10] was over 100 µM each time.

`CC(/C=N/N=C(N)N)=N\N=C(N)N`: the GI50 in experiment [1] was over 73.7 µM; in experiment [3] it was 14.8 µM; in experiment [4] it was over 39.6 µM; in [5] it was 41 µM and 19.4 µM; in experiment [6], 47.7 µM; in [7], over 55.3 µM. Besides, the GI50 in experiment [8] is 31 µM; in [9] it was 18.6 µM and 17.1 µM; in experiment [10], 18.8 µM. Moreover, the concentration for total growth inhibition (TGI) is 521 µM in experiment [1]; 1640 µM in experiment [2]; 46.9 µM in experiment [3]; > 76.9 µM and 214 µM in [4]; 347 µM in experiment [5]; 403 µM in experiment [6]. Also, the TGI in [7] was 236 µM; in experiment [8], 2240 µM; in experiment [9], > 58 µM and 1620 µM; in [10], > 78.5 µM and 1300 µM.

As for `O=C(/C=C/c1ccc([N+](=O)[O-])cc1)c1cccc(Nc2nc(Nc3ccccc3)nc(Nc3ccccc3)n2)c1`, the GI50 in experiment [1] is 68.7 µM; in experiment [2], 0.671 µM; in experiment [3], 32.2 µM; in [4] it was 38.8 µM; in experiment [5], 51 µM; in experiment [6] it was 12 µM. For the same molecule, the GI50 was 21.7 µM in experiment [7], 28.2 µM in experiment [8], 7.79 µM in experiment [9] and 3.85 µM in experiment [10]. The TGI in [1] is over 100 µM; in [2], 63.1 µM; in [3], over 100 µM; in experiment [4], over 100 µM; in experiment [5], over 100 µM; in experiment [6], over 100 µM. Also, the concentration for total growth inhibition (TGI) is over 100 µM in experiment [7], over 100 µM in experiment [8], over 100 µM in [9] and 25.6 µM in experiment [10].

As to `N#C/C(=C\c1ccc2[nH]ccc2c1)C(=O)c1ccc(O)c(O)c1`, the concentration for total growth inhibition (TGI) in experiment [1], in experiment [2], in experiment [3], in experiment [4], in experiment [5] and in experiment [6] was over 100 µM in each case. The TGI is over 100 µM in [7], over 100 µM in experiment [8], over 100 µM in experiment [9] and over 85 µM in experiment [10].

For `O=S(=O)(O)SCCNCCCCCC1CCCCC1`, the TGI worked out at 19.5 µM in [1]; 20.7 µM in [2]; 17.9 µM in experiment [3]; 36.2 µM in [4]; 23.8 µM in experiment [5]; 11.7 µM in experiment [6]. Further, the TGI is 4.22 µM in experiment [7], 12.1 µM in experiment [8], 19.1 µM in experiment [9] and over 100 µM in [10].

As for `CN1CCN(c2ccc3nc(-c4ccc(OCCCCN5CCN(CCCCN6C(=O)c7cccc8cccc(c78)C6=O)CC5)cc4)[nH]c3c2)CC1`, the GI50 in [1] was 30.3 µM; in experiment [2] it was 48.4 µM; in experiment [3], over 100 µM; in experiment [4], 20.9 µM; in [5], over 100 µM; in experiment [6], 27.9 µM. The GI50 is 40.7 µM in experiment [7], 29.4 µM in [8], 86.4 µM in experiment [9] and 47.8 µM in experiment [10]. Besides, the total growth inhibition concentration (TGI) in experiment [1] was 74.7 µM; in experiment [2], over 100 µM; in [3], over 100 µM; in [4], 42.6 µM; in experiment [5], over 100 µM; in experiment [6] it was over 100 µM. Moreover, the TGI in experiment [7], in [8], in [9] and in experiment [10] was over 100 µM each time.

`O=C1/C(=C\c2ccccc2)C2OCC=C3CN4CCC56c7ccccc7N1C5C2C3CC46` (centres undefined): the GI50 is 2.16 µM in [1]; 4.69 µM in experiment [2]; 54.3 µM in experiment [3]; 4.67 µM in [4]; over 100 µM in experiment [5]; 13.1 µM in [6]. Also, the GI50 in [7] was 1.83 µM; in experiment [8] it was over 100 µM; in [9], 2.07 µM; in [10] it was 6.06 µM. The TGI in experiment [1] was 4.11 µM; in [2], over 100 µM; in experiment [3] it was over 100 µM; in experiment [4], 17.9 µM; in experiment [5], over 100 µM; in experiment [6] it was over 100 µM. Moreover, the concentration for total growth inhibition (TGI) was 4.06 µM in experiment [7], over 100 µM in [8], 5.37 µM in experiment [9] and over 100 µM in [10].
